Results: PMC10432564, “Pharmacological perturbation of the phase-separating protein SMNDC1” (Nature Communications, 2023)

Columns and labels:
[1] = target: SMN Tudor domain (Homo sapiens, UniProt Q16637); assay: AlphaScreen, SMN Tudor domain / sDMA-peptide interaction
Description: To establish an AlphaScreen[50], we coupled donor beads to purified SMNDC1’s (or SMN’s) Tudor domain via a His-Tag and acceptor beads to a biotinylated peptide corresponding to the C-terminal region of the Small nuclear ribonucleoprotein Sm D3 containing four sDMAs (Fig. 4a). […] To identify ideal concentrations for screening, we performed a cross-titration of Tudor domains and binding peptides (Supplementary Fig. 3b).
(§1) The AlphaScreen was conducted in 20 mM sodium phosphate pH 6.5, 50 mM NaCl, Tween 0.01%, BSA 0.1%. Protein concentration was optimized for each batch of purified protein. Optimal concentration was chosen at the lowest concentration with ~80% of maximum signal. […] In the first step, 10 µl of the protein solution containing either SMNDC1’s or SMN’s Tudor domain coupled to a 6xHis-Tag were distributed to 384-well plates pre-spotted with compounds and controls, shaken and incubated for 30 min at RT. Afterwards, 10 µl of peptide solution was added to each well and incubated for 1 h at RT. Finally, 5 µl of a solution containing both Streptavidin Donor and nickel chelate (Ni-NTA) Acceptor beads was added and again incubated for 1 h at RT.

[2] = target: T1, SMNDC1 Tudor domain (Homo sapiens, UniProt O75940); assay: AlphaScreen, SMNDC1 Tudor domain / sDMA-peptide interaction; details: for effect of the structural modification on potency / IC50: structure-activity relationships around compound 1; for selectivity between SMNDC1 and SMN: AlphaScreen SMNDC1 vs SMN
T1 sequence (O75940 65-128): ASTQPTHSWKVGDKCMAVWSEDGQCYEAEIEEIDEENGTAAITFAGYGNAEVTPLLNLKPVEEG
Description: To pharmacologically perturb SMNDC1 function, we set out to identify small molecule inhibitors of SMNDC1’s Tudor domain based on perturbing its interaction with a dimethylarginine peptide. To establish an AlphaScreen[50], we coupled donor beads to purified SMNDC1’s (or SMN’s) Tudor domain via a His-Tag and acceptor beads to a biotinylated peptide corresponding to the C-terminal region of the Small nuclear ribonucleoprotein Sm D3 containing four sDMAs (Fig. 4a). […] To identify ideal concentrations for screening, we performed a cross-titration of Tudor domains and binding peptides (Supplementary Fig. 3b).
as §1
Category Parameter Description
Assay Type of assay In vitro AlphaScreen / luminescence proximity
Target Tudor domain of SMNDC1
Primary measurement Decrease in luminescence signal reflecting
disruption of heterodimeric complex between
SMNDC1-Tudor domain and a peptide
corresponding to the C-terminus of Small nuclear
ribonucleoprotein Sm D3 containing 4 sDMAs
Key reagents AlphaScreen no-wash assay kit containing
Streptavidin Donor beads and nickel chelate (Ni-
NTA) AlphaScreen Acceptor beads (PerkinElmer
Assay protocol Described in Methods section
Screen Format PerkinElmer OptiPlate-384 well plate
Concentration(s) tested Typically 10 μM (0.1% DMSO)
Plate controls 32 positive control wells (Mitoxantrone, quencher),
32 negative control wells (DMSO)
Reagent/ compound dispensing system Echo 520 Liquid Handler Multidrop™ Combi
Normalization Raw signal was normalized plate-specifically by
correcting row and column-specific mean signals to
the mean signal of the entire plate, each after
removing the highest and lowest 25% of values. Raw
signal was then converted to percent of control
signal, but linear regression to plate-specific mean
signal of DMSO wells (set to 100 percent of control)
and positive control wells (set to 0% of control), after
outlier removal using a Grubbs test.
unspecific quenchers), Secondary screen (with

[3] = test system: SMNDC1-GFP αTC1 clones; assay: Live imaging of endogenously tagged SMNDC1-GFP; format: cell-based, mouse
Description: Cell lines with fluorescent tags in the endogenous intron loci of different genes were generated as described in Serebrenik et al., and Reicher et al.[39],[74]. Cells were transiently transfected using Avalanche-Everyday Transfection Reagent with three plasmids in parallel: (1) the donor plasmid containing the artificial intron with splice acceptor and splice donor site, the fluorescent tag GFP or RFP, and a possible correction for the frame of the targeted intron, (2) a pX330 backbone containing Cas9 and the gRNA against the donor plasmid, and (3) a plasmid expressing the gRNA against the target intron (see table below). After 3–5 days, GFP- and/or RFP-positive cells were sorted on a SONY SH800 Cell Sorter to get fluorescent single cell clones. Clones were validated for the correct integration of the intron-tag via comparison of live cell images to publicly available or in-house IF images, genomic DNA PCR amplification of the respective loci, and western blots with antibodies against the target protein and/or the fluorescent tag.
Cells were imaged on a PerkinElmer Opera Phenix automated microscope with 500 ms exposure time in either GFP or RFP channel, or on a Zeiss LSM 980 microscope. For condition-independent identification nuclear markers such as Hoechst or DRAQ5^TM were used.
Images were analyzed using the high-content image acquisition and analysis software Harmony® 4.9 developed by PerkinElmer. First, nuclei were identified in the channel of the nuclear marker (DAPI/ Hoechst/ DRAQ5^TM) (with Method C, Common Threshold 0.75, Area > 10 µm^2). After the identification of nuclei, their corresponding cytoplasm was also identified using the respective nucleic acid marker (with Method A, Individual Threshold 0.15). Even though the highest staining of these nuclear markers is obviously detected in the nucleus they still produce a significant staining of the cytoplasm above background. After defining the respective cell areas, mean intensity in the different channels was measured. Finally, spots were identified with the according “Spots” algorithm (with Method A, Relative Spot Intensity > 0.053, Splitting Sensitivity: 1.0).

SMN Tudor domain, sequence (Q16637 84-147): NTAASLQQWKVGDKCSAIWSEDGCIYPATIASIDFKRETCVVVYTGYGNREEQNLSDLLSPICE

Structure (SMILES) | IC50 [1] [nM] | IC50 [2] [nM] | further results
Cc1sc(NC(=O)c2ccc(S(=O)(=O)N(C)C)cc2)nc1-c1ccccn1 [compound 10] | 1260 | 450 | effect of the structural modification on potency / IC50 [2]: without loss of potency
OCCCCCCO [1,6-hexanediol, reference compound] |  |  | focal localization of SMNDC1-GFP within the nucleus ([3]; live cells, 2.5% or 5%): losing its focal localization within the nucleus
CN(C)S(=O)(=O)c1ccc(C(=O)Nc2nc(-c3ccccn3)c(Br)s2)cc1 [compound 12] | 3840 | 1370 | 
Cc1ccc(C(=O)Nc2nc(-c3ccccn3)cs2)o1 [compound 22] | 900 | 470 | 
O=C(O)c1ccc(C(=O)Nc2nc(-c3ccccn3)cs2)cc1 [compound 26] | 3380 | 1100 | 
O=C(Nc1nc(-c2ccccn2)cs1)c1ccc(S(=O)(=O)N2CCOCC2)cc1 [Fig. 4e] | 640 | 770 | 
CCN(CC)S(=O)(=O)c1ccc(C(=O)Nc2nc(-c3cccnc3)cs2)cc1 [compound 3] | > 50000 | > 50000 | 
COc1ccc(Cc2nnc(NC(=O)Cc3cccs3)s2)cc1OC [Fig. 4g] | 5800 | 2300 | 
CC(C)(C)OC(=O)NCCNC(=O)c1ccc(C(=O)Nc2nc(-c3ccccn3)cs2)cc1 [compound 28] | 15400 |  | effects on SMNDC1 and SRRM2 localization ([3]; double-tagged SMNDC1-GFP SRRM2-RFP αTC1-clone, 50/25/12.5/6.25/3.125 µM): could confirm the effects observed for the non-selective compound 1
Cc1ccc(-c2csc(NC(=O)c3ccc(S(=O)(=O)N4CCCC4)cc3)n2)o1 [compound 6] | 29400 | 33700 | 
CCc1ccccc1NC(=O)c1cccc2c1C(=O)N(c1ccc(OC)cc1)C2 [Fig. 4i] | 3900 | 1400 | 
CN(C)S(=O)(=O)c1ccc(C(=O)Nc2nc(-c3ccncc3)cs2)cc1 [compound 4] | 3030 | 9560 | 
O=S(=O)(Nc1nc(-c2ccccn2)cs1)c1ccccc1 [compound 18] | 2550 | 1000 | 
Nc1csc(-c2ccccn2)n1 [compound 14] | 5350 | 1780 | 
Cc1ccnc2nc(C(=O)Nc3nc(-c4ccccn4)cs3)nn12 [compound 24] | 1350 | 810 | 
COc1ccccc1-c1csc(NC(=O)c2ccc(S(=O)(=O)N(C)C)cc2)n1 [compound 5] | 1700 | 920 | 
CC1NC(=O)NC1CCCCCC(=O)OCC(=O)c1ccccc1 (centres unmarked) [Fig. 4h] | 4000 | 190 | 
N=C(N)Nc1nc(-c2ccccn2)cs1 [compound 19] | 13200 | 14500 | 
N#Cc1cccc(C(=O)Nc2nc(-c3ccc[nH]3)cs2)c1 [compound 8] | 8240 | 4050 | effect of the structural modification on potency / IC50 [2]: some loss of potency
Nc1nc(-c2ccccn2)co1 [compound 16] | > 50000 | 20700 | drop in potency ([2]; thiazole replaced with analogous oxazole): 40 fold
O=C(Nc1nc(-c2ccccn2)cs1)c1ccc(-n2cnnn2)cc1 [compound 27] | 1230 | 730 | 
CC(C)(C)CNC(=O)c1ccc(C(=O)Nc2nc(-c3ccccn3)cs2)cc1 [compound 25] | 9820 | 1470 | selectivity between SMNDC1 and SMN [2]: increased selectivity for SMNDC1 over SMN
O=C(Nc1nc(-c2cccs2)cs1)c1ccc(S(=O)(=O)N2CCCC2)cc1 [compound 7] | > 50000 | > 50000 | 
CCOC(=O)c1csc(NC(=O)c2ccc(S(=O)(=O)N(C)C)cc2)n1 [compound 9] | > 50000 | > 50000 | SMNDC1-GFP spots within the nucleus ([3]; 50 µM, 12–16 h): not observed; SMNDC1 within the nucleus (nuclear SMNDC1-GFP) ([3]; 50 µM, 12–16 h): not observed; effect of the structural modification on potency / IC50 [2]: complete loss of activity
CCn1ccc(C(=O)Nc2nc(-c3ccccn3)cs2)n1 [compound 21] | 1160 | 1090 | 
Cc1cc(C)n2c(Nc3ccccc3C)c(-c3ccccn3)nc2n1 [Fig. 4k] | 1200 | 1100 | 
CCc1sc(NC(=O)c2ccc(S(=O)(=O)N(C)C)cc2)nc1-c1ccccn1 [compound 11] | 3520 | 1400 | 
Nc1ncc(-c2ccccn2)s1 [compound 15] | 15200 | > 50000 | selectivity between SMNDC1 and SMN [2]: preferentially inhibited SMN over SMNDC1; effect of the structural modification on potency / IC50 [2]: significant loss of activity
O=C(Nc1nc(-c2ccccn2)cs1)C1CC1 [compound 20] | 2930 | 2120 | 
COc1ccc(CCNc2nc(-c3ccccn3)cs2)cc1OC [compound 17] | 2000 | 1420 | 
